Columns and labels:
xCT = xCT mRNA and protein levels in homogenised ischemic brain tissue of rats with CIR; assay type: in vivo, rat; conditions: pretreatment 150 mg/kg, 12 h after reperfusion
Description: Eight to ten-week-old male adult male Sprague-Dawley rats, C57BL/6J mice and xCT^−/− mice were anesthetized with 1.5% isoflurane in oxygen, allowed breathing spontaneously, and body temperature was maintained at 37° C. with a heat lamp during surgery for right middle cerebral artery ligation and bilateral common carotid artery clamping as previously described (Chen S T, Hsu C Y, Hogan E L, Maricq H, Balentine J D. A model of focal ischemic stroke in the rat: reproducible extensive cortical infarction. Stroke; a journal of cerebral circulation. 1986; 17(4):738-43, which is incorporated here by reference). Animals were subjected to transient cerebral ischemia for 90 min in rats and 2 h in mice.
Q-PCR analysis was performed as described previously in Hsieh (Hsieh C H, Kuo J W, Lee Y J, Chang C W, Gelovani Liu R S. Construction of mutant TKGFP for real-time imaging of temporal dynamics of HIF-1 signal transduction activity mediated by hypoxia and reoxygenation in tumors in living mice. J Nucl Med. 2009; 50(12):2049-57, which is incorporated here by reference). […] The cDNA was then used for real time PCR quantification of mRNAs using the gene specific forward and reverse primers. […]
To test this hypothesis, the mRNA and protein levels of xCT in ischemic brains with or without 2-methoxyestradiol (2ME2), an inhibitor of HIF-1, at 12 h after CIR were first determined. […]

mouse xCT promoter = test: Mouse xCT promoter luciferase reporter assay in neurons and astrocytes; assay type: cell-based; conditions: 24 h incubation, DFO 100 μM, CoCl2 50 μM
From the text: The multiple cloning sites (MCS) of pTA-Luc vector (Clontech) was inserted with the cDNA fragment bearing −2000 to +1 bp mouse or human xCT promoter to drive the expression of firefly luciferase gene as pTA-mxCTp-Luc or pTA-hxCTp-Luc. The mutant of hypoxia response element on mouse or human xCT promoter was generated in the pTA-mxCTp-Luc or pTA-hxCTp-Luc as template by Quick Change Site-directed Mutagenesis Kit (Stratagene).
Cells were cotransfected with xCT promoter-driven reporter constructs with or without HRE mutation and Renilla reporter plasmids. At 24 h after transfection, the luciferase activity was examined by a dual luciferase reporter assay system (Promega) according to the manufacturers instructions, and firefly luciferase activity was normalized to the control renilla activity included in the kit. Luciferase activities are expressed as fold-increase over the luciferase activities in un-stimulated conditions.
To test whether the xCT promoter would respond to HIF activation, the mouse xCT 2000-bp promoter was isolated and fused to firefly luciferase coding sequences for use in transient transfection assays with neurons and astrocytes. Normoxic neurons and astrocytes were treated with OGDR or incubated with desferrioxamine (DFO; 100 μM) or cobalt chloride (CoCl2; 50 μM) for 24 h. The DFO and CoCl2 mimics hypoxia by inducing transcription from HIF-1-dependent genes.

NMDAR [1] = conditions: for hyperfunction of NMDAR (binding radioactivity of 18F-FSAG): WT cortical cells, OGDR, 24 h after reperfusion, 10 μM (SAS 500 μM)
NMDAR [2] = biological target: T1, NMDAR (Mus musculus, UniProt P35438); assay type: in vivo; conditions: WT and xCT−/− mice with CIR, 12 h after reperfusion, compared to vehicle
T1 construct: from tissue; host or cells: cerebral hemispheres of WT (C57BL/6J) and xCT-/- mice after CIR, in vivo/ex vivo
Description: Animals received 29.6 MBq/kg of ^18F-FSAG in 100 μl of PBS via lateral tail vein injection, and then were euthanized by CO2/O2 asphyxiation at 30 min after injection. After sacrifice, selected tissues of interest were then removed and weighed, and the radioactivity was measured using a γ-counter. The percentage injected dose per gram (% ID/g) was then calculated.
To determine in vivo activation of NMDAR, mice were injected with ^18F-FSAG at 12 h after reperfusion for ex vivo biodistribution studies and positron emission tomography (PET) imaging studies.

SLC7A11 (xCT) mRNA = test: SLC7A11 mRNA level (Q-PCR) in primary cortical cells exposed to OGDR; assay type: cell-based, mouse; conditions: pretreatment with YC-1 5 μM
astrocytes = test: Annexin V flow cytometric apoptosis assay after OGDR, astrocytes; assay type: cell-based, mouse; conditions: WT cortical cells, 24 h after reperfusion, 10 μM (SAS 500 μM)
Description: (§1) Annexin V staining was performed to determine cell apoptosis using the Annexin V-FITC Apoptosis Detection Kit (Sigma-Aldrich) for 10 min at room temperature according to the manufacturers instructions, and then flow cytometric analysis was performed.
(§2) The three-color staining flow cytometric assay using allophycocyanin-microtubule-associated protein 2 (MAP2) for neuron staining, phycoerythrin (PE)-GFAP for astrocyte staining and FITC-annexin V for apoptotic cell staining was performed to count the numbers of neurons, astrocytes, and apoptotic cells. FIGS. 21A and […] show the results of apoptosis in wild type (WT) and xCT^−/− cortical cells treated with OGDR at 24 h after reperfusion. *P<0.01 compared to WT without OGDR, Student's t-test. ^#P<0.01 compared to WT with OGDR, Student's t-test. From FIGS. 21A and 21B it was observed that that smaller numbers of apoptotic cells were present in xCT^−/− neurons and astrocytes after OGDR treatment.

system xc− [3] = biological target: T2, system xc− (Mus musculus, UniProt Q9WTR6); test: Extracellular glutamate content in WT cortical cells exposed to OGDR; assay type: cell-based; conditions: 24 h after reperfusion, 10 μM (SAS 500 μM)
T2 construct: endogenous in cells; host or cells: primary cortical cells from E17 wild-type C57BL/6J mouse embryos, exposed to OGDR
T2 sequence (Q9WTR6 1-502): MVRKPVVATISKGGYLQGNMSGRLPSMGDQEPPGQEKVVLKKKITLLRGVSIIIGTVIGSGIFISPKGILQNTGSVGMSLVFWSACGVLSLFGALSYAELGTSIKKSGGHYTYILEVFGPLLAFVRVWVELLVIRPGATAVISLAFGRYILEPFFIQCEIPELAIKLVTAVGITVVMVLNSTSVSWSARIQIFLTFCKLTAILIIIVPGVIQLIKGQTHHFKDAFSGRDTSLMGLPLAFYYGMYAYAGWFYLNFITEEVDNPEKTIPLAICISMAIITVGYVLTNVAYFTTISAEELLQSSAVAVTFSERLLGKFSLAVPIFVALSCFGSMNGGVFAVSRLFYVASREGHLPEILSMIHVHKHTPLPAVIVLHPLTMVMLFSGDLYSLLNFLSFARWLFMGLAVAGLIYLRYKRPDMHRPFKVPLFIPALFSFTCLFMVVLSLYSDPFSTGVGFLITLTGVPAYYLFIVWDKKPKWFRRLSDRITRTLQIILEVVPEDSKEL
T2 sequence (P10852 1-526 partner): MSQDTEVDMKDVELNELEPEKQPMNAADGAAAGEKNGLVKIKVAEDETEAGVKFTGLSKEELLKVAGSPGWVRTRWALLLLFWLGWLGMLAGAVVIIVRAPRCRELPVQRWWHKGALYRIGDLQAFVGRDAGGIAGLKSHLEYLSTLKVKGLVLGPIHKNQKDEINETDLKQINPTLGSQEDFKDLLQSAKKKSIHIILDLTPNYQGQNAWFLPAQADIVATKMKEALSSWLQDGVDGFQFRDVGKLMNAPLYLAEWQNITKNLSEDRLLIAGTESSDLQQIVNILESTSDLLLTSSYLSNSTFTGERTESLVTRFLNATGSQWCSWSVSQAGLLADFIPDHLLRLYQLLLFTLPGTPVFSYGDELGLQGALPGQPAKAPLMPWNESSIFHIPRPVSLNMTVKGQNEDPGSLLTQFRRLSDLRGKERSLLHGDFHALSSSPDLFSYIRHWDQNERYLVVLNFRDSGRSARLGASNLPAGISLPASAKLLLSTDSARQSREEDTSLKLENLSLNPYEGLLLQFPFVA
Description: (§3) Primary cortical cells were prepared from cerebral cortices of wild-type C57BL/6J or homozygote xCT^−/− mouse embryos in embryonic day 17 as previously described with modification (Goldberg M P, Choi D W. Combined oxygen and glucose deprivation in cortical cell culture: calcium-dependent and calcium-independent mechanisms of neuronal injury. The Journal of neuroscience: the official journal of the Society for Neuroscience, 1993; 13(8):3510-24, which is incorporated here by reference).

neurons = test: Annexin V flow cytometric apoptosis assay after OGDR, neurons; assay type: cell-based, mouse; conditions: WT cortical cells, 24 h after reperfusion, 10 μM (SAS 500 μM)
Description: as §1, §2

WT cortical cells = test: Lactate dehydrogenase (LDH) level in WT cortical cells after OGD/OGDR; assay type: cell-based, mouse; conditions: OGDR, 24 h after reperfusion, 10 μM (SAS 500 μM)
Description: as §3
The LDH assay was carried out at 24 hours after reperfusion. *P<0.01 compared to drugs-untreated cells (Un), one-way ANOVA. Error bars denote the standard deviation among triplicate experiments.

system xc− [4] = biological target: T3, system xc− (Homo sapiens, UniProt Q9UPY5); conditions: Dixon et al., eLife 2014; cited from earlier work
T3 sequence (Q9UPY5 1-501): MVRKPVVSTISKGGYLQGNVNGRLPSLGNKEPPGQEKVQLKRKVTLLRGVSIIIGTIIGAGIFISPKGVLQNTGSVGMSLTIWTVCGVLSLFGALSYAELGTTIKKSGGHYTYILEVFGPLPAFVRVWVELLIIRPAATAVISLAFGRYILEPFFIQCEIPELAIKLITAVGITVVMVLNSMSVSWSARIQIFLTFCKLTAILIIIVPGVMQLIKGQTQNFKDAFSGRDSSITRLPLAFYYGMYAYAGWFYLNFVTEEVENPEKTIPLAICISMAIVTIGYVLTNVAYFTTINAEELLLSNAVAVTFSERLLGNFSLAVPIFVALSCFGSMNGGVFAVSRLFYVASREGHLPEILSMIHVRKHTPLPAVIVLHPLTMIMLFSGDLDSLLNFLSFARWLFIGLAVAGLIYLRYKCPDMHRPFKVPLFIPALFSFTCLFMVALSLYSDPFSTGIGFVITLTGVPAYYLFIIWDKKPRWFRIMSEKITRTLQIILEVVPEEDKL
T3 sequence (P08195 1-529 partner): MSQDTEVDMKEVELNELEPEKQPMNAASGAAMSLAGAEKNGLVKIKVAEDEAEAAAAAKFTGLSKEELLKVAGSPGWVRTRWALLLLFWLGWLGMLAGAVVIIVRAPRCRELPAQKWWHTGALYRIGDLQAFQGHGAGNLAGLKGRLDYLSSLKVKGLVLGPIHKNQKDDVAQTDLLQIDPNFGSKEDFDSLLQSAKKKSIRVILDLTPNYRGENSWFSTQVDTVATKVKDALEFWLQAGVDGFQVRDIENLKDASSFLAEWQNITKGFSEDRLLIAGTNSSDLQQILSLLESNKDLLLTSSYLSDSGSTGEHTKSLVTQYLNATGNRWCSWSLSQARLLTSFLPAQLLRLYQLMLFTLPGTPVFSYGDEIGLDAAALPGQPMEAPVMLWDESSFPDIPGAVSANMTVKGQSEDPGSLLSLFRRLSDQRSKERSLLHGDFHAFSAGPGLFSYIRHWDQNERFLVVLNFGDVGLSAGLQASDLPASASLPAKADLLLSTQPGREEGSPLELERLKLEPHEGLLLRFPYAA

Compound: COc1cc2c(cc1O)CC[C@@H]1[C@@H]2CC[C@]2(C)[C@@H](O)CC[C@@H]12 [2ME2, 2-methoxyestradiol]
- xCT mRNA expression level (xCT): significantly inhibited
- xCT protein expression level (xCT): significantly inhibited

Compound: [Cl][Co][Cl] [CoCl2, cobalt chloride]
- transcriptional activation of xCT (reporter activity of mouse xCT promoter) (mouse xCT promoter): increased

Compound: CC(=O)N(O)CCCCCNC(=O)CCC(=O)N(O)CCCCCNC(=O)CCC(=O)N(O)CCCCCN [DFO, desferrioxamine]
- transcriptional activation of xCT (reporter activity of mouse xCT promoter) (mouse xCT promoter): increased

Compound: C[C@]12N[C@H](Cc3ccccc31)c1ccccc12 [MK801]
- binding of 18F-FSAG (NMDAR [1]; cortical cells, pretreatment 10 μM): blocked
- 18F-FSAG accumulation in ipsilateral and contralateral hemispheres (NMDAR [2]): significant reduction

Compound: OCc1ccc(-c2nn(Cc3ccccc3)c3ccccc23)o1 [YC-1]
- OGDR-increased SLC7A11 mRNA expression (SLC7A11 (xCT) mRNA): inhibited

Compound: CCOc1ccccc1-n1c(C(C)N2CCN(C(=O)COc3ccc(Cl)cc3)CC2)nc2ccccc2c1=O (stereo not drawn) [erastin]
- apoptosis in astrocytes (astrocytes): inhibited
- hyperfunction of NMDAR (binding radioactivity of 18F-FSAG) (NMDAR [1]): inhibited
- OGDR-induced glutamate release (extracellular glutamate content) (system xc− [3]): inhibited
- apoptosis in neurons (neurons): inhibited
- LDH levels (WT cortical cells): inhibited

Compound: Cc1ccc(NC(=O)c2ccc(CN3CCN(C)CC3)cc2)cc1Nc1nccc(-c2cccnc2)n1 [imatinib]
- system xc− inhibition activity (system xc− [4]): lacking system xc^− inhibition activity

Compound: CNC(=O)c1cc(Oc2ccc(NC(=O)Nc3ccc(Cl)c(C(F)(F)F)c3)c(F)c2)ccn1 [regorafenib]
- apoptosis in astrocytes (astrocytes): inhibited
- hyperfunction of NMDAR (binding radioactivity of 18F-FSAG) (NMDAR [1]): inhibited
- OGDR-induced glutamate release (extracellular glutamate content) (system xc− [3]): inhibited
- apoptosis in neurons (neurons): inhibited
- LDH levels (WT cortical cells): inhibited
